Assay results as given in US20230390463A1, “TISSUE SCAFFOLDS” (JD BIOMEDICAL SOLUTIONS LTD., priority 2020, published 2023).
Read-outs that look alike come from different tables or passages of the source.

Experiments:
[1] = Hydrophilic-lipophilic balance (HLB); assay type: physicochemical; conditions: experimentally determined required HLB range
Text: As understood herein, the term “hydrophilic-lipophilic balance (HLB)” describes the ratio between the size of the hydrophilic and lipophilic regions of a surfactant molecule. The empirically derived formula: […]
Was introduced for alkyl ethoxylates (Griffin W. C. J. Soc. Cosmet. Chem., 5 (1954), p. 249.) The HLB of more complex surfactant structures is found using a systematic approach based on chemical group assignments (Davies J. T., Rideal E. K. Interfacial Phenomena Academic Press, New York (1961), pp. 371-378):
HLB=7+Σ(Hydrophile group number)−Σ(lipophile group number)
A water-in-oil emulsion (w/o) has […]. An oil-in-water (o/w) emulsion has […]. The propensity for formation of a w/o or o/w emulsion is determined by the balance of hydrophobicity and hydrophilicity of the solutions in the mixture. This may be determined using the HLB scale. Oleic phase reagents are assigned an HLB number, determined experimentally, that allows for selection of an appropriate surfactant to cause emulsification with the aqueous phase. […] HLB as understood herein is a semi-quantitative measure of the relative molecular weights of the hydrophilic and lipophilic regions of a surfactant molecule assigned on a scale from 0.5 (extremely lipophilic) to 19.5 (extremely hydrophilic).

[2] = surfactant, cited from earlier work
[3] = Oil carrying capacity (oil fraction at lowest TSI); assay type: physicochemical; conditions: decane / MES-NaCl buffer, 0.1% (v/v) surfactant, 37° C.
Text: The proposed system of determining the oil fraction at which optimum emulsion stability occurs, the ‘oil carrying capacity’ (OCC) of the surfactant, is intended as a tool for surfactant selection in a system where the desired oil fraction is known. Equally, it may be used to optimise oil fraction ‘carried’ in the emulsion when a particular surfactant is required. It is a practical tool to be used in conjunction with other metrics, such as HLB, but its simplicity and broad application make it versatile and easy to implement to formulation practice.
The oil fraction at the lowest TSI after 15 minutes was identified as the ‘oil carrying capacity’ (OCC) of that surfactant. Further oil/buffer/surfactant mixtures were prepared at 5% oil fractions either side of this minimum (i.e. an initial minimum of 70% oil fraction would be tested then at 65% and 75% oil fraction).

[4] = test system: h-tert human mesenchymal stem cells; assay: Cyto-compatibility of scaffolds (CCK-8, contact and leachable assay); assay type: cell-based; conditions: acute (24 h) and chronic (120 h) exposure; surfactant at 0.1% v/v in media
Procedure: Cylindrical samples were cut with an 8 mm biopsy punch (n=3) were cut from two scaffolds. […] At 24 h (acute response time) and 120 h (chronic response time), 300 μl DMEM/CCK-8 (10:1) was added and incubated for 4 hours at 37° C. before reading absorbance at 450 nm. Two scaffolds of the same composition (D3, D4) from different manufacturing batches (0.1% Tx-165 surfactant, 90% porous, 2:1 fibrin: PVA, 2% fibrinogen) were tested with triplicate samples from each. […] This material is known to be non-cytotoxic, verified with both in vitro and in vivo assays.

[5] = Turbiscan emulsion stability (TSI) of decane/buffer emulsions stabilised with surfactant; assay type: physicochemical; conditions: 0.1% (v/v) surfactant, 15 mins after mixing
Text: Stability was herein reported using the Turbiscan™ stability index (TSI). This non-destructive, non-invasive technique gives the stability of the sample over its whole selected height as a function of transmitted and backscattered light compared to the same measurements at the previous timepoint. Kinetic stability is built up over sequential scans. The pattern of change across the height of the sample gives a ‘fingerprint’ characteristic of the mode of destabilisation. TSI is defined in equation 1: […]
where scani is the backscattering value at a given timepoint, scani-1 is the backscattering value from the previous timepoint, h is the height of the scan and H is the total sample height from the first to the last scan. TSI is the sum of the differences between sequential scans and thus represents the stability of the sample over a defined timeframe. TSI reduces with increasing stability.
Stock solutions of surfactants were prepared in 7 ml polystyrene bijou by dispersing 0.1% (v/v) surfactant in decane so that surfactant scaled with oil fraction. These stock solutions were shaken briefly to disperse the surfactants before adding the deionised water. 4 ml mixtures were prepared in triplicate for each surfactant at various oil fractions (50, 60, 70, 80, 90% v/v oil-surfactant). Each sample was vortexed for 1 minute using WhirliMixer™ (Fisherbrand) to homogenise immediately prior to stability measurements.
3 ml of the sample was pipetted into a borosilicate glass cuvette, taking care to maintain a clean meniscus, and analysed using Turbiscan™ LAB Analyser (Formulation, Toulouse, France) scanning every 30 seconds for a total of 15 minutes.
Turbiscan stability index (TSI) was plotted for each surfactant as a function of oil fraction in the emulsion preparation, HLB, or time. Lower TSI indicates less change in the transmitted light, or less change in particle size and position.
Stability was measured using the Turbiscan™ static multiple light scattering analyser and expressed using the Turbiscan stability index (TSI) which reflects the change in transmitted and backscattered light across the height of a sample over a period of time. A higher value of TSI reflects poorer stability; a lower value reflects greater stability. However, because TSI measures rate of change, emulsions which break instantly after mixing ceases can display low TSI values.

[6] = as above; assay type: physicochemical; conditions: 0.1% (v/v) surfactant, 15 mins after mixing; remark: listed apart in the source

CCCCCCCCCC [decane]
required HLB of the decane oil phase [1]: 10-13

C11-15 pareth-7 [Tergitol 15-S-7]
HLB [2]: 12.1

C11-15 pareth-9 [Tergitol 15-S-9]
HLB [2]: 13.3 | HLB ([2]; listed as Tergitol T-S-9): ~13

C11-15 pareth-15 [Tergitol 15-S-15]
HLB [2]: 15.4

Ethylene oxide-propylene oxide copolymer mono(2-ethylhexyl) ether [Ecosurf EH-9]
HLB [2]: 12.5

Nonylphenol ethoxylate [Tergitol NP-10]
HLB [2]: 13.2

Octylphenol ethoxylate [Triton N-101 reduced]
HLB [2]: 14.4

Octylphenol ethoxylate [Triton X-102]
oil fraction at maximum stability (oil carrying capacity) [3]: 70%

Octylphenol ethoxylate [Triton X-165]
cytotoxicity [4]: cytotoxic in itself

Polyethylene glycol 4-tert- octylphenyl ether [Triton X-45]
HLB [2]: 9.8

Polyethylene glycol 4-tert-octylphenyl ether [Triton X-100 reduced]
HLB [2]: 9.8

Polyethylene glycol tert- octylphenyl ether [Triton X-100]
Turbiscan stability index (TSI) ([5]; 70% v/v decane, mixing speed 1000 rpm): 3.189 | Turbiscan stability index (TSI) ([5]; 70% v/v decane, mixing speed 2000 rpm): 2.758 | Turbiscan stability index (TSI) ([5]; 70% v/v decane, mixing speed 3000 rpm): 8.763 | Turbiscan stability index (TSI) ([5]; 70% v/v decane, mixing speed 4000 rpm): 3.637 | Turbiscan stability index (TSI) ([5]; 70% v/v decane, mixing speed 5000 rpm): 2.705 | Turbiscan stability index (TSI) ([5]; 80% v/v decane, mixing speed 1000 rpm): 2.483 | Turbiscan stability index (TSI) ([5]; 80% v/v decane, mixing speed 2000 rpm): 2.225 | Turbiscan stability index (TSI) ([5]; 80% v/v decane, mixing speed 3000 rpm): 2.493 | Turbiscan stability index (TSI) ([5]; 80% v/v decane, mixing speed 5000 rpm): 5.128 | oil fraction at maximum stability (oil carrying capacity) [3]: 70% | Turbiscan stability index (TSI) ([6]; 75% v/v decane, mixing speed 1000 rpm): 3.571 | Turbiscan stability index (TSI) ([6]; 75% v/v decane, mixing speed 2000 rpm): 2.601 | Turbiscan stability index (TSI) ([6]; 75% v/v decane, mixing speed 3000 rpm): 2.723 | Turbiscan stability index (TSI) ([6]; 75% v/v decane, mixing speed 4000 rpm): 3.213 | Turbiscan stability index (TSI) ([6]; 75% v/v decane, mixing speed 5000 rpm): 2.398 | Turbiscan stability index (TSI) ([6]; 80% v/v decane, mixing speed 4000 rpm): 9.886 | HLB [2]: 13.4

Polyethylene glycol tert-octylphenyl ether [Triton X-114 reduced]
HLB [2]: 13.4

Polyethylene glycol tert-octylphenyl ether [Triton X-114]
oil fraction at maximum stability (oil carrying capacity) [3]: 70% | HLB [2]: 12.3

Polyethylene glycol trimethylnonyl ether [Tergitol TMN-6]
HLB [2]: 13.1

Polyethylene glycol trimethylnonyl ether [Tergitol TMN-10]
HLB [2]: 14.4

Polyoxyethylene (40) isooctylphenyl ether [Triton X-405]
oil fraction at maximum stability (oil carrying capacity) [3]: 70% | HLB [2]: 17.6
